Experimental data: US12492173B2, “Herbicidal substituted N-tetrazolyl aryl carboxamides” (Bayer Aktiengesellschaft, priority 2019, dated 2025)

Columns and labels:
Format in all cases: in vivo
Polygonum convolvulus = test: Post-emergence herbicidal action, POLCO
In short: (§1)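 WP or EC formulations, diluted in water at 600 to 800 l/ha with 0.2% wetting agent, are sprayed onto green parts of one-leaf-stage plants grown in sandy loam. Visual assessment of percent damage relative to untreated controls follows after approximately 3 weeks in the greenhouse.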

Amaranthus retroflexus = test: Pre-emergence herbicidal action, AMARE; details: dosage 320 g/ha; for herbicidal activity AMARE: scored visually after 3 weeks vs untreated controls (100% = plants have died)
In short: (§2)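 Weed seeds sown in sandy loam and covered; WP or EC formulations applied to soil surface as aqueous suspension or emulsion at 600 to 800 l/ha with 0.2% wetting agent. Greenhouse-grown, with damage scored visually after 3 weeks versus untreated controls (0% = like control, 100% = plants dead).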

Viola tricolor = test: Pre-emergence herbicidal action, VIOTR; details: dosage 320 g/ha; for herbicidal activity VIOTR: scored visually after 3 weeks vs untreated controls (100% = plants have died)
In short: as §2

Avena fatua = test: Post-emergence herbicidal action, AVEFA; parameters: key: % herbicidal action vs untreated; 100 = plants died, 0 = like control
In short: as §1

Setaria viridis = test: Post-emergence herbicidal action, SETVI; parameters: key: % herbicidal action vs untreated; 100 = plants died, 0 = like control
In short: as §1

Echinochloa crus-galli = test: Pre-emergence herbicidal action, ECHCG; details: dosage 320 g/ha; for herbicidal activity ECHCG: scored visually after 3 weeks vs untreated controls (100% = plants have died)
In short: as §2

| SMILES | herbicidal action POLCO (Polygonum convolvulus; Dosage 80 g/ha) | herbicidal activity AMARE (Amaranthus retroflexus) | herbicidal activity VIOTR (Viola tricolor) | herbicidal action AVEFA (Avena fatua; Dosage 80 g/ha) | herbicidal action SETVI (Setaria viridis; Dosage 80 g/ha) | herbicidal activity ECHCG (Echinochloa crus-galli) | herbicidal action POLCO (Polygonum convolvulus; post-emergence, dosage 80 g/ha) | herbicidal action AVEFA (Avena fatua; post-emergence, dosage 80 g/ha) | herbicidal action SETVI (Setaria viridis; post-emergence, dosage 80 g/ha) | Herbicidal action against POLCO (Polygonum convolvulus; post-emergence, dosage 80 g/ha) | Herbicidal action against SETVI (Setaria viridis; post-emergence, dosage 80 g/ha) | herbicidal action AMARE (Amaranthus retroflexus) | herbicidal action VIOTR (Viola tricolor) | herbicidal action ECHCG (Echinochloa crus-galli) |
| --- | --- | --- | --- | --- | --- | --- | --- | --- | --- | --- | --- | --- | --- | --- |
| CCn1nnnc1NC(=O)c1ccc(C(F)F)c(CSC)c1C [Example 2-107] | 90 | 100% | 100% | 80 | 90 | 100% | – | – | – | – | – | – | – | – |
| Cc1c(C(=O)Nc2nnnn2C)ccc(C(F)F)c1CS(C)(=O)=O [Example 1-109] | – | 100% | 100% | – | 90 | 90% | – | – | – | – | – | – | – | – |
| Cn1nnnc1NC(=O)c1ccc(C(F)(F)F)c(CS(C)(=O)=O)c1F [Example 1-244] | – | 100% | 100% | – | 100 | 100% | – | – | – | – | – | – | – | – |
| CCCn1nnnc1NC(=O)c1ccc(C(F)F)c(CSC)c1Cl [Example 3-320] | 90 | 100% | 100% | 90 | 100 | 100% | – | – | – | – | – | – | – | – |
| Cn1nnnc1NC(=O)c1ccc(C(F)(F)F)c(C[S+](C)[O-])c1F (centres unmarked) [Example 1-243] | – | 100% | 100% | 80 | 100 | 100% | – | – | – | – | – | – | – | – |
| Cc1ccc(C(=O)Nc2nnnn2C)c(Cl)c1CS(C)(=O)=O [Example 1-289] | – | 100% | 90% | – | 90 | 90% | – | – | – | – | – | – | – | – |
| CCCn1nnnc1NC(=O)c1ccc(C(F)(F)F)c(C[S+](C)[O-])c1Br (centres unmarked) [Example 3-381] | – | 100% | 100% | – | – | 100% | 80% | 100% | 90% | – | – | – | – | – |
| CCCn1nnnc1NC(=O)c1ccc(C(F)(F)F)c(CSCC)c1Cl [Example 3-299] | 80 | 100% | 100% | 80 | 90 | 100% | – | – | – | – | – | – | – | – |
| CCCn1nnnc1NC(=O)c1ccc(C(F)(F)F)c(CSC)c1Cl [Example 3-296] | – | 100% | 100% | 90 | 90 | 100% | – | – | – | – | – | – | – | – |
| COc1c(C(=O)Nc2nnnn2C)ccc(C(F)(F)F)c1CSC [Example 1-134] | 90 | 100% | 100% | 90 | 100 | 100% | – | – | – | 80 | 100 | – | – | – |
| CCCn1nnnc1NC(=O)c1ccc(C(F)(F)F)c(CS(=O)(=O)CC)c1C [Example 3-88] | 90 | 100% | 100% | 80 | 90 | 100% | – | – | – | – | – | – | – | – |
| CCCn1nnnc1NC(=O)c1ccc(C(F)(F)F)c(CSC)c1OC [Example 3-134] | 90 | 100% | 100% | 90 | 100 | 100% | – | – | – | – | – | – | – | – |
| CSCc1c(C(F)(F)F)ccc(C(=O)Nc2nnnn2C)c1SC [Example 1-161] | – | 100% | 100% | 100 | 100 | 100% | – | – | – | – | – | – | – | – |
| CCn1nnnc1NC(=O)c1ccc(C(F)(F)F)c(C[S+](C)[O-])c1OC (centres unmarked) [Example 2-135] | 90 | 100% | 100% | 100 | 100 | 100% | – | – | – | – | – | – | – | – |
| CCCn1nnnc1NC(=O)c1ccc(C(F)F)c(C[S+]([O-])CC)c1Cl (centres unmarked) [Example 3-324] | 100 | 100% | 100% | 100 | 100 | 100% | – | – | – | – | – | – | – | – |
| CCn1nnnc1NC(=O)c1ccc(C(F)(F)F)c(CS(C)(=O)=O)c1Br [Example 2-382] | 80 | 100% | 100% | – | 90 | 100% | – | – | – | – | – | – | – | – |
| CCSCc1c(C(F)(F)F)ccc(C(=O)Nc2nnnn2C)c1C [Example 1-86] | – | 100% | 100% | – | – | 100% | 80% | 100% | 80% | – | – | – | – | – |
| CSCc1c(C(F)(F)F)ccc(C(=O)Nc2nnnn2C)c1F [Example 1-242] | – | 100% | 100% | 80 | 90 | 100% | – | – | – | – | – | – | – | – |
| CSCc1c(C(F)(F)F)ccc(C(=O)Nc2nnnn2C)c1Cl [Example 1-296] | – | 100% | 100% | – | – | 100% | – | 90% | 100% | – | – | – | – | – |
| CCCn1nnnc1NC(=O)c1ccc(C(F)(F)F)c(CS(C)(=O)=O)c1OC [Example 3-136] | 80 | 100% | 100% | – | 100 | 100% | – | – | – | – | – | – | – | – |
| CCn1nnnc1NC(=O)c1ccc(C)c(CSC)c1Cl [Example 2-287] | 80 | 100% | 90% | – | 90 | 100% | – | – | – | – | – | – | – | – |
| Cn1nnnc1NC(=O)c1ccc(Cl)c(CS(C)(=O)=O)c1Cl [Example 1-561] | – | 100% | 100% | 90 | 100 | 100% | – | – | – | – | – | – | – | – |
| Cc1c(C(=O)Nc2nnnn2C)ccc(C(F)(F)F)c1C[S+](C)[O-] (centres unmarked) [Example 1-84] | – | – | 100% | – | – | 100% | – | 90% | 100% | – | – | – | – | – |
| CCn1nnnc1NC(=O)c1ccc(C(F)(F)F)c(CS(C)(=O)=O)c1OC [Example 2-136] | – | 100% | 100% | 100 | 100 | 100% | – | – | – | – | – | – | – | – |
| CCCn1nnnc1NC(=O)c1ccc(C(F)(F)F)c(CS(=O)(=O)CC)c1Br [Example 3-385] | 90 | 100% | 100% | – | 90 | 100% | – | – | – | – | – | – | – | – |
| CCn1nnnc1NC(=O)c1ccc(S(C)(=O)=O)c(CS(C)(=O)=O)c1C [Example 2-39] | – | – | – | – | 100 | – | – | – | – | – | – | 100% | 100% | 90% |
